Assay results reported in ChEMBL document CHEMBL1201862, “PubChem BioAssay data set” (2004).
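How tested: cells in 96-well plates exposed to compound for 48 hours at five concentrations. Abbreviation: GI50, concentration required for 50% inhibition of growth.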 The source made the active and inactive calls. No stated cut-off is given here; in the data, active = GI50 up to about 1.1 µM and inactive = higher.

What was measured:
Assay in all cases: NCI anticancer screen, dose series, 48 h
A549 = test system: A549
KM12 = test system: KM12
HT-29 = test system: HT-29
DMS-273 = test system: DMS-273
SR = test system: SR
OVCAR-5 = test system: OVCAR-5
SF-539 = test system: SF-539
M14 = test system: M14
LOX IMVI = test system: LOX IMVI
SF-295 = test system: SF-295
SK-MEL-28 = test system: SK-MEL-28
K562 = test system: K562
NCI-H460 = test system: NCI-H460
SK-MEL-5 = test system: SK-MEL-5
HCT-116 = test system: HCT-116
SK-OV-3 = test system: SK-OV-3
786-0 = test system: 786-0
HOP-62 = test system: HOP-62
CCRF-CEM = test system: CCRF-CEM
HL-60 = test system: HL-60
NCI-H23 = test system: NCI-H23
OVCAR-8 = test system: OVCAR-8
EKVX = test system: EKVX
OVCAR-4 = test system: OVCAR-4
RXF 393 = test system: RXF 393
SF-268 = test system: SF-268
SW-620 = test system: SW-620
IGROV-1 = test system: IGROV-1
RXF 631 = test system: RXF 631
HOP-18 = test system: HOP-18
HCC 2998 = test system: HCC 2998
M19-MEL = test system: M19-MEL
UACC-257 = test system: UACC-257
UACC-62 = test system: UACC-62
U-251 = test system: U-251
Malme-3M = test system: Malme-3M
COLO 205 = test system: COLO 205
XF498 = test system: XF498
SK-MEL-2 = test system: SK-MEL-2
UO-31 = test system: UO-31
NCI-H226 = test system: NCI-H226
KM-20L2 = test system: KM-20L2
DLD-1 = test system: DLD-1
SNB-19 = test system: SNB-19
NCI-H522 = test system: NCI-H522
SN12C = test system: SN12C
SNB-78 = test system: SNB-78
DMS-114 = test system: DMS-114
LXFL 529 = test system: LXFL 529
A498 = test system: A498
SNB-75 = test system: SNB-75
TK-10 = test system: TK-10
OVCAR-3 = test system: OVCAR-3
HCT-15 = test system: HCT-15
ACHN = test system: ACHN
CAKI-1 = test system: CAKI-1
RPMI-8226 = test system: RPMI-8226
MOLT-4 = test system: MOLT-4
HOP-92 = test system: HOP-92

`COC(=O)CCC(NC(=S)N/N=C/c1ccco1)C(=O)OC` (stereo not given) was tested, and the GI50 (A549) was > 100 µM (inactive), the GI50 (KM12) was > 100 µM (inactive) and the GI50 (HT-29) was > 100 µM (inactive). The GI50 (DMS-273) was > 100 µM (inactive), the GI50 (SR) was > 100 µM (inactive) and the GI50 (OVCAR-5) was > 100 µM (inactive). For the same compound, the GI50 (SF-539) was > 100 µM (inactive), the GI50 (M14) was > 100 µM (inactive) and the GI50 (LOX IMVI) was > 100 µM (inactive). The GI50 (SF-295) was > 100 µM (inactive), the GI50 (SK-MEL-28) was > 100 µM (inactive) and the GI50 (K562) was > 100 µM (inactive). The GI50 (NCI-H460) was > 100 µM (inactive), the GI50 (SK-MEL-5) was > 100 µM (inactive) and the GI50 (HCT-116) was > 100 µM (inactive). The GI50 (SK-OV-3) was > 100 µM (inactive), the GI50 (786-0) was > 100 µM (inactive) and the GI50 (HOP-62) was > 100 µM (inactive). For the same compound, the GI50 (CCRF-CEM) was > 100 µM (inactive), the GI50 (HL-60) was > 100 µM (inactive) and the GI50 (NCI-H23) was > 100 µM (inactive). The GI50 (OVCAR-8) was > 100 µM (inactive), the GI50 (EKVX) was > 100 µM (inactive) and the GI50 (OVCAR-4) was > 100 µM (inactive). For the same compound, the GI50 (RXF 393) was > 100 µM (inactive), the GI50 (SF-268) was > 100 µM (inactive) and the GI50 (SW-620) was > 100 µM (inactive). The GI50 (IGROV-1) was > 100 µM (inactive), the GI50 (RXF 631) was > 100 µM (inactive) and the GI50 (HOP-18) was > 100 µM (inactive). The GI50 (HCC 2998) was > 100 µM (inactive), the GI50 (M19-MEL) was > 100 µM (inactive) and the GI50 (UACC-257) was > 100 µM (inactive). The GI50 (UACC-62) was > 100 µM (inactive), the GI50 (U-251) was > 100 µM (inactive) and the GI50 (Malme-3M) was > 100 µM (inactive). For the same compound, the GI50 (COLO 205) was > 100 µM (inactive), the GI50 (XF498) was > 100 µM (inactive) and the GI50 (SK-MEL-2) was > 100 µM (inactive). The GI50 (UO-31) was > 100 µM (inactive), the GI50 (NCI-H226) was > 100 µM (inactive) and the GI50 (KM-20L2) was > 100 µM (inactive). For the same compound, the GI50 (DLD-1) was > 100 µM (inactive), the GI50 (SNB-19) was > 100 µM (inactive) and the GI50 (NCI-H522) was > 100 µM (inactive). For the same compound, the GI50 (SN12C) was > 100 µM (inactive), the GI50 (SNB-78) was > 100 µM (inactive) and the GI50 (DMS-114) was > 100 µM (inactive). For the same compound, the GI50 (LXFL 529) was > 100 µM (inactive), the GI50 (A498) was > 100 µM (inactive) and the GI50 (SNB-75) was > 100 µM (inactive). The GI50 (TK-10) was > 100 µM (inactive), the GI50 (OVCAR-3) was > 100 µM (inactive) and the GI50 (HCT-15) was over 100 µM. For the same compound, the GI50 (ACHN) was > 100 µM (inactive).

`c1ccc(N2CCN(CCN3CCc4c([nH]c5ccccc45)C3c3cccnc3)CC2)cc1` (stereo not given) was tested, and the GI50 (A549) was > 100 µM (inactive), the GI50 (KM12) was > 100 µM (inactive) and the GI50 (HT-29) was > 100 µM (inactive). For the same compound, the GI50 (CAKI-1) was > 100 µM (inactive), the GI50 (DMS-273) was > 100 µM (inactive) and the GI50 (SR) was > 100 µM (inactive). For the same compound, the GI50 (OVCAR-5) was > 100 µM (inactive), the GI50 (SF-539) was 20.5 µM (inactive) and the GI50 (M14) was > 100 µM (inactive). The GI50 (SF-295) was 80 µM (inactive), the GI50 (SK-MEL-28) was > 100 µM (inactive) and the GI50 (K562) was 7.14 µM (inactive). The GI50 (NCI-H460) was > 100 µM (inactive), the GI50 (SK-MEL-5) was > 100 µM (inactive) and the GI50 (HCT-116) was 46.8 µM (inactive). For the same compound, the GI50 (SK-OV-3) was 24 µM (inactive), the GI50 (786-0) was 33.1 µM (inactive) and the GI50 (RPMI-8226) was > 100 µM (inactive). The GI50 (HOP-62) was 89.1 µM (inactive), the GI50 (CCRF-CEM) was > 100 µM (inactive) and the GI50 (HL-60) was > 100 µM (inactive). The GI50 (NCI-H23) was > 100 µM (inactive), the GI50 (OVCAR-8) was 88.1 µM (inactive) and the GI50 (EKVX) was > 100 µM (inactive). The GI50 (OVCAR-4) was > 100 µM (inactive), the GI50 (SF-268) was > 100 µM (inactive) and the GI50 (SW-620) was > 100 µM (inactive). The GI50 (IGROV-1) was > 100 µM (inactive), the GI50 (RXF 631) was 39.5 µM (inactive) and the GI50 (HOP-18) was > 100 µM (inactive). The GI50 (HCC 2998) was > 100 µM (inactive), the GI50 (M19-MEL) was > 100 µM (inactive) and the GI50 (UACC-257) was > 100 µM (inactive). The GI50 (MOLT-4) was > 100 µM (inactive), the GI50 (UACC-62) was > 100 µM (inactive) and the GI50 (U-251) was > 100 µM (inactive). For the same compound, the GI50 (XF498) was 89.9 µM (inactive), the GI50 (UO-31) was 23.8 µM (inactive) and the GI50 (KM-20L2) was > 100 µM (inactive). For the same compound, the GI50 (DLD-1) was > 100 µM (inactive), the GI50 (SNB-19) was > 100 µM (inactive) and the GI50 (NCI-H522) was > 100 µM (inactive). For the same compound, the GI50 (SN12C) was > 100 µM (inactive), the GI50 (SNB-78) was 56.8 µM (inactive) and the GI50 (DMS-114) was > 100 µM (inactive). The GI50 (LXFL 529) was > 100 µM (inactive), the GI50 (A498) was > 100 µM (inactive) and the GI50 (SNB-75) was 3.07 µM (inactive). The GI50 (TK-10) was > 100 µM (inactive), the GI50 (HOP-92) was 14.4 µM (inactive) and the GI50 (OVCAR-3) was > 100 µM (inactive). The GI50 (HCT-15) was over 100 µM and the GI50 (ACHN) was > 100 µM (inactive).

In the case of `CS(=O)(=O)NNS(=O)(=O)c1ccc(Cl)cc1`, the GI50 (A549) is reported as > 100 µM (inactive), the GI50 (KM12) is reported as > 100 µM (inactive) and the GI50 (HT-29) is reported as > 100 µM (inactive). For the same compound, the GI50 (CAKI-1) was 36.7 µM (inactive), the GI50 (DMS-273) was > 100 µM (inactive) and the GI50 (SR) was 62.8 µM (inactive). For the same compound, the GI50 (SF-539) was > 100 µM (inactive), the GI50 (M14) was > 100 µM (inactive) and the GI50 (LOX IMVI) was > 100 µM (inactive). For the same compound, the GI50 (SF-295) was > 100 µM (inactive), the GI50 (K562) was > 100 µM (inactive) and the GI50 (NCI-H460) was > 100 µM (inactive). The GI50 (SK-MEL-5) was > 100 µM (inactive), the GI50 (HCT-116) was > 100 µM (inactive) and the GI50 (786-0) was > 100 µM (inactive). The GI50 (RPMI-8226) was > 100 µM (inactive), the GI50 (HOP-62) was > 100 µM (inactive) and the GI50 (CCRF-CEM) was 29.9 µM (inactive). For the same compound, the GI50 (HL-60) was > 100 µM (inactive), the GI50 (NCI-H23) was > 100 µM (inactive) and the GI50 (OVCAR-8) was > 100 µM (inactive). For the same compound, the GI50 (EKVX) was 76.4 µM (inactive), the GI50 (OVCAR-4) was > 100 µM (inactive) and the GI50 (RXF 393) was 26.1 µM (inactive). For the same compound, the GI50 (SW-620) was > 100 µM (inactive), the GI50 (IGROV-1) was > 100 µM (inactive) and the GI50 (RXF 631) was > 100 µM (inactive). For the same compound, the GI50 (HCC 2998) was > 100 µM (inactive), the GI50 (M19-MEL) was > 100 µM (inactive) and the GI50 (UACC-257) was > 100 µM (inactive). The GI50 (MOLT-4) was 55.7 µM (inactive), the GI50 (UACC-62) was > 100 µM (inactive) and the GI50 (U-251) was > 100 µM (inactive). For the same compound, the GI50 (Malme-3M) was > 100 µM (inactive), the GI50 (COLO 205) was > 100 µM (inactive) and the GI50 (XF498) was > 100 µM (inactive). For the same compound, the GI50 (SK-MEL-2) was > 100 µM (inactive), the GI50 (UO-31) was 35.6 µM (inactive) and the GI50 (NCI-H226) was 11 µM (inactive). The GI50 (KM-20L2) was > 100 µM (inactive), the GI50 (DLD-1) was > 100 µM (inactive) and the GI50 (SNB-19) was > 100 µM (inactive). For the same compound, the GI50 (NCI-H522) was 90.8 µM (inactive), the GI50 (SN12C) was > 100 µM (inactive) and the GI50 (DMS-114) was > 100 µM (inactive). The GI50 (LXFL 529) was > 100 µM (inactive), the GI50 (A498) was > 100 µM (inactive) and the GI50 (SNB-75) was > 100 µM (inactive). For the same compound, the GI50 (TK-10) was > 100 µM (inactive), the GI50 (OVCAR-3) was > 100 µM (inactive) and the GI50 (HCT-15) was over 100 µM. For the same compound, the GI50 (ACHN) was > 100 µM (inactive).
